In patent US10092551B2, “Spiro-thiazolones” (Hoffmann-La Roche Inc., priority 2014, dated 2018):

molecular target: human V1a receptor (Homo sapiens (Human), UniProt P37288); assay: human V1a receptor binding studies (3H-Vasopressin, SPA beads); conditions: membranes of HEK293 cells transiently transfected with human V1a receptor, Ki by Cheng-Prussoff
In short: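 Membranes from HEK293 cells transiently expressing cloned human V1a receptor, bound on yttrium silicate SPA beads with 4 nM 3H-vasopressin (added stock) and serially diluted compound, 1 h at room temperature. Non-specific binding defined with cold vasopressin; IC50 by non-linear regression, Ki via Cheng-Prusoff.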

human V1a receptor, sequence (P37288 whole entry): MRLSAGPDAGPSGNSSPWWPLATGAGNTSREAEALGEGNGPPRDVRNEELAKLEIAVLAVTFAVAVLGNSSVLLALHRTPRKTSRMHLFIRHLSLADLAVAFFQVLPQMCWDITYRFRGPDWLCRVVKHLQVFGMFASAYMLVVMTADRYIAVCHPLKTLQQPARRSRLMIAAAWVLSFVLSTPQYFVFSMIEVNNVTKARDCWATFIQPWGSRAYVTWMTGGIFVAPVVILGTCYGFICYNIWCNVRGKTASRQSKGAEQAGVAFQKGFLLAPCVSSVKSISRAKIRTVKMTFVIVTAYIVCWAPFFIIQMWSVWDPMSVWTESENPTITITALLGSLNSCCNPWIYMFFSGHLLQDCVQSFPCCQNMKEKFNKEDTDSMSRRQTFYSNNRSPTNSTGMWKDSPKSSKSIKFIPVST

Going from `CC(C)CC(CC(C)C)=C1SC(N2CCC3(CC2)OCc2ccccc23)=NC1=O` [Example 116, 5-(2,6-dimethylheptan-4-ylidene)-2-(1′H,3H-spiro[2-benzofuran-1,4′-piperidin]-1′-yl)-1,3-thiazol-4(5H)-one] to `CC(C)C(=C1SC(N2CCC3(CC2)OCc2ccccc23)=NC1=O)C(C)C` [Example 120, 5-(2,4-dimethylpentan-3-ylidene)-2-(1′H,3H-spiro[2-benzofuran-1,4′-piperidin]-1′-yl)-1,3-thiazol-4(5H)-one], the “pKi hV1a” value rises from 8.3 to 8.8.

Going from `C/C(=C1/SC(N2CCC3(CC2)OCc2ccccc23)=NC1=O)c1cnc[nH]1` [Example 117, (5E/Z)-5-[1-(1H-imidazol-5-yl)ethylidene]-2-(1′H,3H-spiro[2-benzofuran-1,4′-piperidin]-1′-yl)-1,3-thiazol-4(5H)-one] to `C/C(CS(C)(=O)=O)=C1/SC(N2CCC3(CC2)OCc2ccccc23)=NC1=O` [Example 121, (5E/Z)-5-[1-(methylsulfonyl)propan-2-ylidene]-2-(1′H,3H-spiro[2-benzofuran-1,4′-piperidin]-1′-yl)-1,3-thiazol-4(5H)-one], the “pKi hV1a” value falls from 7.3 to 7.0.

First: O=C1N=C(N2CCC3(CC2)OCc2ccccc23)SC1=C(C1CCCC1)C1CCCC1 [Example 118, 5-(dicyclopentylmethylidene)-2-(1′H,3H-spiro[2-benzofuran-1,4′-piperidin]-1′-yl)-1,3-thiazol-4(5H)-one]
Second: O=C1N=C(N2CCC3(CC2)OCc2ccccc23)SC1=C(C1CCCCC1)C1CCCCC1 [Example 125, 5-(dicyclohexylmethylidene)-2-(1′H,3H-spiro[2-benzofuran-1,4′-piperidin]-1′-yl)-1,3-thiazol-4(5H)-one]
The “pKi hV1a” value of the first is higher: 7.6 for the first, 7.2 for the second.

Compared with `O=C1N=C(N2CCC3(CC2)OCc2ccccc23)SC1=C(c1cccnc1)c1cccnc1` [Example 119, 5-[di(pyridin-3-yl)methylidene]-2-(1′H,3H-spiro[2-benzofuran-1,4′-piperidin]-1′-yl)-1,3-thiazol-4(5H)-one], `O=C1N=C(N2CCC3(CC2)OCc2ccccc23)S/C1=C(/CO)c1ccccc1` [Example 124, (5E)-5-(2-hydroxy-1-phenylethylidene)-2-(1′H,3H-spiro[2-benzofuran-1,4′-piperidin]-1′-yl)-1,3-thiazol-4(5H)-one] is higher in “pKi hV1a” value: 7.6 for the first, 9.3 for the second.

`O=C1N=C(N2CCC3(CC2)OCc2ccccc23)SC1=C(c1ccc[nH]1)c1ccc[nH]1` [Example 122, 5-(di-1H-pyrrol-2-ylmethylidene)-2-(1′H,3H-spiro[2-benzofuran-1,4′-piperidin]-1′-yl)-1,3-thiazol-4(5H)-one] and `O=C1N=C(N2CCC3(CC2)OCc2ccccc23)S/C1=C(\CO)c1ccccc1` [Example 127, (5Z)-5-(2-hydroxy-1-phenylethylidene)-2-(1′H,3H-spiro[2-benzofuran-1,4′-piperidin]-1′-yl)-1,3-thiazol-4(5H)-one] are the same in “pKi hV1a” value: 9.0 for the first, 9.0 for the second.

Compared with `CC(C)(C)[Si](C)(C)OC/C(=C1/SC(N2CCC3(CC2)OCc2ccccc23)=NC1=O)c1ccccc1` [Example 123, (5E)-5-(2-{[tert-butyl(dimethyl)silyl]oxy}-1-phenylethylidene)-2-(1′H,3H-spiro[2-benzofuran-1,4′-piperidin]-1′-yl)-1,3-thiazol-4(5H)-one], `CC(C)(C)[Si](C)(C)OC/C(=C1/SC(N2CCC3(CC2)OC(=O)c2ccccc23)=NC1=O)c1ccccc1` [Example 140, 1′-[(5E)-5-(2-{[tert-butyl(dimethyl)silyl]oxy}-1-phenylethylidene)-4-oxo-4,5-dihydro-1,3-thiazol-2-yl]-3H-spiro[2-benzofuran-1,4′-piperidin]-3-one] is higher in “pKi hV1a” value: 8.5 for the first, 8.9 for the second.

First: O=C1N=C(N2CCC3(CC2)OCc2ccccc23)S/C1=C1\C=CCC1 [Example 128, (5Z)-5-(cyclopent-2-en-1-ylidene)-2-(1′H,3H-spiro[2-benzofuran-1,4′-piperidin]-1′-yl)-1,3-thiazol-4(5H)-one]
Second: O=C1N=C(N2CCC3(CC2)OCc2ccccc23)S/C1=C(/CO)c1ccc(Cl)nc1 [Example 130, (5E)-5-[1-(6-chloropyridin-3-yl)-2-hydroxyethylidene]-2-(1′H,3H-spiro[2-benzofuran-1,4′-piperidin]-1′-yl)-1,3-thiazol-4(5H)-one]
The “pKi hV1a” value of the first is lower: 7.6 for the first, 8.9 for the second.

Going from `CC(C)(C)[Si](C)(C)OC/C(=C1/SC(N2CCC3(CC2)OCc2ccccc23)=NC1=O)c1ccc(Cl)nc1` [Example 129, (5E)-5-[2-{[tert-butyl(dimethyl)silyl]oxy}-1-(6-chloropyridin-3-yl)ethylidene]-2-(1′H,3H-spiro[2-benzofuran-1,4′-piperidin]-1′-yl)-1,3-thiazol-4(5H)-one] to `CC(C)(C)[Si](C)(C)OC/C(=C1\SC(N2CCC3(CC2)OCc2ccccc23)=NC1=O)c1ccc(Cl)nc1` [Example 131, (5Z)-5-[2-{[tert-butyl(dimethyl)silyl]oxy}-1-(6-chloropyridin-3-yl)ethylidene]-2-(1′H,3H-spiro[2-benzofuran-1,4′-piperidin]-1′-yl)-1,3-thiazol-4(5H)-one], the “pKi hV1a” value falls from 8.2 to 7.8.

Compared with `CC(C)/C(=C1\SC(N2CCC3(CC2)OCc2ccccc23)=NC1=O)c1ccc(Cl)nc1` [Example 132, (5E)-5-[1-(6-chloropyridin-3-yl)-2-methylpropylidene]-2-(1′H,3H-spiro[2-benzofuran-1,4′-piperidin]-1′-yl)-1,3-thiazol-4(5H)-one], `CC/C(=C1/SC(N2CCC3(CC2)OCc2ccccc23)=NC1=O)c1ccc(Cl)nc1` [Example 133, (5Z)-5-[1-(6-chloropyridin-3-yl)propylidene]-2-(1′H,3H-spiro[2-benzofuran-1,4′-piperidin]-1′-yl)-1,3-thiazol-4(5H)-one] is higher in “pKi hV1a” value: 7.8 for the first, 9.2 for the second.

`CC/C(=C1\SC(N2CCC3(CC2)OCc2ccccc23)=NC1=O)c1ccc(Cl)nc1` [Example 134, (5E)-5-[1-(6-chloropyridin-3-yl)propylidene]-2-(1′H,3H-spiro[2-benzofuran-1,4′-piperidin]-1′-yl)-1,3-thiazol-4(5H)-one] and `O=C1N=C(N2CCC3(CC2)OC(=O)c2ccccc23)S/C1=C(/CO)c1ccc(Cl)nc1` [Example 145, 1′-{(5E)-5-[1-(6-chloropyridin-3-yl)-2-hydroxyethylidene]-4-oxo-4,5-dihydro-1,3-thiazol-2-yl}-3H-spiro[2-benzofuran-1,4′-piperidin]-3-one] are the same in “pKi hV1a” value: 8.0 for the first, 8.0 for the second.

Going from `C/C(=C1/SC(N2CCC3(CC2)OC(=O)c2ccccc23)=NC1=O)c1ccc(C)nc1` [Example 135, 1′-{(5Z)-5-[1-(6-methylpyridin-3-yl)ethylidene]-4-oxo-4,5-dihydro-1,3-thiazol-2-yl}-3H-spiro[2-benzofuran-1,4′-piperidin]-3-one] to `C/C(=C1\SC(N2CCC3(CC2)OC(=O)c2ccccc23)=NC1=O)c1ccc(C)nc1` [Example 136, 1′-{(5E)-5-[1-(6-methylpyridin-3-yl)ethylidene]-4-oxo-4,5-dihydro-1,3-thiazol-2-yl}-3H-spiro[2-benzofuran-1,4′-piperidin]-3-one], the “pKi hV1a” value falls from 7.9 to 7.5.

Compared with `C/C(=C1/SC(N2CCC3(CC2)OC(=O)c2ccccc23)=NC1=O)c1ccc(Cl)nc1` [Example 137, 1′-{(5Z)-5-[1-(6-chloropyridin-3-yl)ethylidene]-4-oxo-4,5-dihydro-1,3-thiazol-2-yl}-3H-spiro[2-benzofuran-1,4′-piperidin]-3-one], `C/C(=C1\SC(N2CCC3(CC2)OC(=O)c2ccccc23)=NC1=O)c1ccc(Cl)nc1` [Example 138, 1′-{(5E)-5-[1-(6-chloropyridin-3-yl)ethylidene]-4-oxo-4,5-dihydro-1,3-thiazol-2-yl}-3H-spiro[2-benzofuran-1,4′-piperidin]-3-one] is higher in “pKi hV1a” value: 8.0 for the first, 8.3 for the second.

`O=C1N=C(N2CCC3(CC2)OC(=O)c2ccccc23)SC1=C(C1CC1)C1CC1` [Example 139, 1′-[5-(dicyclopropylmethylidene)-4-oxo-4,5-dihydro-1,3-thiazol-2-yl]-3H-spiro[2-benzofuran-1,4′-piperidin]-3-one] and `O=C1N=C(N2CCC3(CC2)OC(=O)c2ccccc23)S/C1=C(\CO)c1ccccc1` [Example 142, 1′-[(5Z)-5-(2-hydroxy-1-phenylethylidene)-4-oxo-4,5-dihydro-1,3-thiazol-2-yl]-3H-spiro[2-benzofuran-1,4′-piperidin]-3-one] are within 0.2 log units of each other in “pKi hV1a” value: 8.5 for the first, 8.4 for the second.

First: CC(C)(C)[Si](C)(C)OC/C(=C1\SC(N2CCC3(CC2)OC(=O)c2ccccc23)=NC1=O)c1ccccc1 [Example 141, 1′-[(5Z)-5-(2-{[tert-butyl(dimethyl)silyl]oxy}-1-phenylethylidene)-4-oxo-4,5-dihydro-1,3-thiazol-2-yl]-3H-spiro[2-benzofuran-1,4′-piperidin]-3-one]
Second: CC(C)(C)[Si](C)(C)OC/C(=C1/SC(N2CCC3(CC2)OC(=O)c2ccccc23)=NC1=O)c1ccc(Cl)nc1 [Example 144, 1′-{(5E)-5-[2-{[tert-butyl(dimethyl)silyl]oxy}-1-(6-chloropyridin-3-yl)ethylidene]-4-oxo-4,5-dihydro-1,3-thiazol-2-yl}-3H-spiro[2-benzofuran-1,4′-piperidin]-3-one]
The “pKi hV1a” value of the first is lower: 7.6 for the first, 8.0 for the second.

For `O=C1N=C(N2CCC3(CC2)OC(=O)c2ccccc23)S/C1=C(/CO)c1ccccc1` [Example 143, 1′-[(5E)-5-(2-hydroxy-1-phenylethylidene)-4-oxo-4,5-dihydro-1,3-thiazol-2-yl]-3H-spiro[2-benzofuran-1,4′-piperidin]-3-one], the “pKi hV1a” value was 8.8.
